From patent publication US7476673B2, “Disubstituted chalcone oximes as selective agonists of RARγ retinoid receptors” (Allergan, Inc., priority 2003, dated 2009)
pEC50, pKi: −log10 of the molar value. Values belong to the compound of their own block, whether it stands above or below them.

How the values were obtained:
RARγ [1] = experiment: chimeric receptor transactivation assay, RARγ; type: cell-based; conditions: judged from Table 1 data, versus RARα and RARβ
Experimental: (§1) The compounds of the invention were tested in certain assays for activity as agonists of RAR and RXR retinoid receptors. Specifically, one such assay is a chimeric receptor transactivation assay which tests for agonist-like activity in the RARα, RARβ and RARγ receptor subtypes, and which is based on work published by Feigner P. L. and Holm M. (1989) Focus, 112 is described in detail in U.S. Pat. No. 5,455,265. The specification of U.S. Pat. No. 5,455,265 is hereby expressly incorporated by reference.
(§2) A holoreceptor transactivation assay and a ligand binding assay which measure the antagonist/agonist like activity of the compounds of the invention, or their ability to bind to the several retinoid receptor subtypes, respectively, are described in published PCT Application No. WO WO93/11755 (particularly on pages 30-33 and 37-41) published on Jun. 24, 1993, the specification of which is also incorporated herein by reference. A detailed experimental procedure for holoreceptor transactivations has been described by Heyman et al. Cell 68, 397-406, (1992); Allegretto et al. J. Biol. Chem. 268, 26625-26633, and Mangelsdorf et al. The Retinoids: Biology, Chemistry and Medicine, pp 319-349, Raven Press Ltd., New York, which are expressly incorporated herein by reference. The results obtained in this assay are expressed in EC50 numbers, as they are also in the chimeric receptor transactivation assay. The results of the ligand binding assay are expressed in Ki numbers. (See Cheng et al. Biochemical Pharmacology Vol. 22 pp 3099-3108, expressly incorporated herein by reference.)
(§3) Efficacy in a transactivation assay is expressed as a percentage of the maximum potency attained by the compound compared to a standard which, in this case, is the compound 4-[(1E)-2-(5,6,7,8-tetrahydro-5,5,8,8-tetramethyl-2-naphthalenyl)-1-propenyl]-benzoic acid. (TTNPB) This standard compound is described in PCT Publication WO 2002077169 A2.
(§4) Table 1 discloses the activity of certain exemplary compounds of the invention in the above-described chimeric RAR receptor transactivation and binding assays.

RARβ [2] = biological target: T1, RARβ (Homo sapiens, UniProt P10826); experiment: chimeric receptor transactivation assay, RARβ; type: cell-based
T1 sequence (P10826 183-455 limits assumed): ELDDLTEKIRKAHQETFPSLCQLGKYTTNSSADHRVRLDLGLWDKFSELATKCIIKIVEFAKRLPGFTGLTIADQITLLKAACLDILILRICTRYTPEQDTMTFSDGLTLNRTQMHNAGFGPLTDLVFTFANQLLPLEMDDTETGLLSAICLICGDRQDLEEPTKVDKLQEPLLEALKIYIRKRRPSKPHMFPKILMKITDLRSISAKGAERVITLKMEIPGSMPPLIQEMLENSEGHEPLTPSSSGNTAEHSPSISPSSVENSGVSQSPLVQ
Experimental: as §1, §2, §3, §4

RARγ [3] = biological target: T2, RARγ (Homo sapiens, UniProt P13631); experiment: ligand binding assay, RARγ; conditions: results expressed in Ki numbers, read-out: RAR Binding γ
T2 sequence (P13631 1-454): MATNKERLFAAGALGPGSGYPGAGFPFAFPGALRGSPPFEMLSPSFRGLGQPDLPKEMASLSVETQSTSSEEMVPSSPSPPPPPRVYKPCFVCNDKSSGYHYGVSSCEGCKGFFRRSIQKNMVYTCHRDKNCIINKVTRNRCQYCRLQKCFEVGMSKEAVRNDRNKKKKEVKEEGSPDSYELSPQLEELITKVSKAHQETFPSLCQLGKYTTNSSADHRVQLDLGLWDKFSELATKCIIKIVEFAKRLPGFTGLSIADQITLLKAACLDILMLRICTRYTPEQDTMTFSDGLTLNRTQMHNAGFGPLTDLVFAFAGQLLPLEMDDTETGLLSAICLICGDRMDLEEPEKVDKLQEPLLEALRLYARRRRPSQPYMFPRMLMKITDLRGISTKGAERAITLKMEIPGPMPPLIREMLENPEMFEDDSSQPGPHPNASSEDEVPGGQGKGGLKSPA
Description: as §2, §4

RARβ [4] = biological target: T3, RARβ (Homo sapiens, UniProt P10826); experiment: ligand binding assay, RARβ; conditions: results expressed in Ki numbers, read-out: RAR Binding β
T3 sequence (P10826 1-455): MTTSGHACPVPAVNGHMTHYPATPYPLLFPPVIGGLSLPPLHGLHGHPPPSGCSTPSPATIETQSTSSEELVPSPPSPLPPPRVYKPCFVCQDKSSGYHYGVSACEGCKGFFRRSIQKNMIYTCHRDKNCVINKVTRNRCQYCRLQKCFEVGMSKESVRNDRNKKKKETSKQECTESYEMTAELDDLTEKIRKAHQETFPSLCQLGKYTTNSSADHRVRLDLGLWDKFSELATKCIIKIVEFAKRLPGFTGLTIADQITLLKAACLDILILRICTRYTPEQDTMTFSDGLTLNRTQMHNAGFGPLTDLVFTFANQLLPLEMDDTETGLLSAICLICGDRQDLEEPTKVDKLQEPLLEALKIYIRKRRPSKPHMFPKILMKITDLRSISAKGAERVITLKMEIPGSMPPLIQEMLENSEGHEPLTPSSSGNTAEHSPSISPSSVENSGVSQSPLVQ
Description: as §2, §4

RARα [5] = biological target: T4, RARα (Homo sapiens, UniProt P10276); experiment: ligand binding assay, RARα; conditions: results expressed in Ki numbers, read-out: RAR Binding α
T4 sequence (P10276 1-462): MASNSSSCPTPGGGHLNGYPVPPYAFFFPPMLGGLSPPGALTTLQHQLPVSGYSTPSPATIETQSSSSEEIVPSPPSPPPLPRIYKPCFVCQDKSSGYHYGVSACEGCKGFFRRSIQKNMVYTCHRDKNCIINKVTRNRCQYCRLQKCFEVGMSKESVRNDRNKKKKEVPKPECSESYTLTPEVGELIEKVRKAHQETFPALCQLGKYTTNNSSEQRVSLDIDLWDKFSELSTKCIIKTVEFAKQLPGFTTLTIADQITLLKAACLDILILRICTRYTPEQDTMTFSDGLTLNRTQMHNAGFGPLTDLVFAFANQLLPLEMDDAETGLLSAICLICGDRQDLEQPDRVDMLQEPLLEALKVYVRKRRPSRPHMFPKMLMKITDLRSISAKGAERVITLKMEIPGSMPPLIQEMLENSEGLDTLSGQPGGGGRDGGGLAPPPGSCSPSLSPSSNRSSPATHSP
Description: as §2, §4

RARγ [6] = biological target: T5, RARγ (Homo sapiens, UniProt P13631); experiment: chimeric receptor transactivation assay, RARγ; type: cell-based
T5 construct: % Efficiency γ; other: percentage of maximum compared to standard TTNPB
T5 sequence (P13631 185-454 limits assumed): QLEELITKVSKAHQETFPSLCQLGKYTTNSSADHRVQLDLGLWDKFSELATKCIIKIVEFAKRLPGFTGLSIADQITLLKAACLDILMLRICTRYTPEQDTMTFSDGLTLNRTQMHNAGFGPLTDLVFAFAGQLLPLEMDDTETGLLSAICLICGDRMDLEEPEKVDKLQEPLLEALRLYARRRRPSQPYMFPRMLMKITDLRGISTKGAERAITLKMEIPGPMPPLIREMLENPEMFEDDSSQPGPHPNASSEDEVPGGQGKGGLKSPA
Experimental: as §1, §2, §3, §4

RARα [7] = biological target: T6, RARα (Homo sapiens, UniProt P10276); experiment: chimeric receptor transactivation assay, RARα; type: cell-based; conditions: chimeric receptor transactivation; read-out: RAR EC50 α
T6 sequence (P10276 183-417 limits assumed): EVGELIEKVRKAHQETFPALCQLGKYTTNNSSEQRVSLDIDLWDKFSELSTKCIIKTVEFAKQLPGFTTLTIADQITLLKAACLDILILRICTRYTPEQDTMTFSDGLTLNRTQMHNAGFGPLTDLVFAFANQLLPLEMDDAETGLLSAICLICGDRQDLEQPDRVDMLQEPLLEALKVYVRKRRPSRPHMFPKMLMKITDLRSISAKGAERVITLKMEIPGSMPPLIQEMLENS
Experimental: as §1, §2, §3, §4

[8] = percentage of maximum compared to standard TTNPB

Compound: Cc1cc2c(cc1C(/C=C/c1ccc(C(=O)O)cc1)=NO)C(C)(C)CCC2(C)C [Compound 9a, E-4-[3-Hydroxyimino-3-(3,5,5,8,8-pentamethyl-5.6,7,8-tetrahydro-naphthalen-2-yl)-propenyl]-benzoic acid]
selectivity to the RARγ receptors (RARγ [1]): less selective

Compound: Cc1cc2c(cc1C(/C=C\c1ccc(C(=O)O)cc1)=NO)C(C)(C)CCC2(C)C [Compound 9b, Z4-[3-hydroxyimino-3-(3,5,5,8,8-pentamethyl-5,6,7,8-tetrahydro-naphthalen-2-yl)-propenyl]-benzoic acid]
selectivity to the RARγ receptors (RARγ [1]): less selective

selectivity to the RARγ receptors (RARγ [1]): less selective
Compound: COc1cc2c(cc1C(/C=C/c1ccc(C(=O)O)cc1)=NO)C(C)(C)CCC2(C)C [Compound 13a, E-4-[3-Hydroxyimino-3-(3-methoxy-5,5,8,8-tetramethyl-5,6,7,8-tetrahydro-naphthalen-2-yl)-propenyl]-benzoic acid]

selectivity to the RARγ receptors (RARγ [1]): less selective
Compound: COc1cc2c(cc1C(/C=C\c1ccc(C(=O)O)cc1)=NO)C(C)(C)CCC2(C)C [Compound 13b, Z-4-[3-hydroxyimino-3-(3-methoxy-5,5,8,8-tetramethyl-5,6,7,8-tetrahydro-naphthalen-2-yl)-propenyl]-benzoic acid]

pEC50 (RARβ [2]; chimeric receptor transactivation, read-out: RAR EC50 β): 6.80
% Efficiency β (RARβ [2]; [8]): 14%
pKi (RARγ [3]): 5.73
pKi (RARβ [4]): 4.55
pKi (RARα [5]): 5.10
pEC50 (RARγ [6]; chimeric receptor transactivation, read-out: RAR EC50 γ): 7.46
% Efficiency γ (RARγ [6]; [8]): 67%
pEC50 (RARα [7]): < 6.00
Compound: Cc1cc2c(cc1C(C=Cc1ccc(C(=O)O)cc1)=NO)C(C)(C)CCC2(C)C [drawing 37]
